Patent US5837728A, “9-cis retinoic acid esters and amides and uses thereof” (priority 1995, dated 1998)
“Also recorded” adds a separate entry of the source. Like-named read-outs stand apart in the source and are kept apart here.

Tests used:
[1] = test system: sebaceous gland; assay: Oral hamster sebaceous gland reduction assay; assay type: in vivo, male Syrian golden hamsters; set-up: key to the marks not given beside the values; conditions: 32 mg/kg
Procedure: An oral assay for hamster sebaceous gland reduction is conducted.
Hamsters are dosed orally with the test compound and vehicle alone. The reduction in sebaceous gland size is estimated microscopically in relation to the control. The assay is unique and proprietary to Ortho Pharmaceutical Corp. and is based upon the work of Plewig et al. (1977) and Gomex et al. (1980). Plewig, et al., Hamster Ear Model for Sebaceous Glands, J. Invest. Derm. 68: 171-176 (1977). Gomez, et al., Effect of 13-cis-Retinoic Acid on the Hamster Flank Organ, J. Invest. Derm. 74: 392-397 (1980).
For oral (p.o.) studies, male Syrian golden hamsters are […] at 5 ml/kg, once daily, five consecutive days/week for two or three weeks. Modified but similar dosing schedules could be used. Control hamsters are dosed with vehicle alone at 5 ml/kg. Following final treatment (up to 72 hours), the hamsters are sacrificed in a CO2 atmosphere. Samples of each test site are placed into 10% buffered formalin and histologically prepared. Serial sections of each sample are stained (H&E) and examined microscopically.
The reduction in sebaceous gland size is estimated microscopically in relation to the control treated sites. To quantify sebaceous gland size, cross-sectional areas are measured with an image analyzer system.

[2] = test system: skin of rabbits; assay: Topical assay for primary acute dermal irritation; assay type: in vivo
Procedure: Twelve healthy, young, adult, female New Zealand White rabbits (Orycetolagus cuniculus), are used in the study. […] At the start of the study, the animals are in the weight range between 2.0 and 3.0 kilograms, and are approximately 11 weeks of age. Animals selected for the test are not subjected to any previous experimental procedures, and their skin is free from irritation, trauma and disease.
Six animals are treated in this manner.
The application sites are prepared by clipping the skin of the trunk free of hair approximately 24 hours before application of the dose. One application site on each animal is abraded by making minor incisions through the stratum corneum, but not sufficient to disturb the derma (that is, not sufficiently deep to produce bleeding). The second application site is intact skin.
The dose is applied to a small area (approximately 6 cm^2) of skin and covered with a gauze patch which is held in place with Vetrap bandaging. The patches are applied to one intact site and one abraded site per animal. The test substance is kept in contact with the skin for 24 hours. The skin is not rinsed following the 24 hour exposure period.
Animals are observed for signs of erythma and edema 24 and 72 hours after application of the test material. Observations are scored according to the Draize Scale for Scoring Skin Reactions as in Draize, J. H., Dermal Toxicity, Appraisal of the Safety of Chemicals in Foods, Drugs and Cosmetics Dermal Toxicity, pp. 46-59, Association of Food and Drug Officials of the U.S., Topeka, Kans., 1965. […] Animals are weighed at the beginning and at the end of the observation period.

[3] = test system: skin (inner forearm, cheek); assay: Topical assay for comparative dermal irritation in human subjects; assay type: in vivo, human (patients); conditions: for Irritant reactions, inner forearm: first test, 0.025% solution; for Irritant reactions, inner forearm / Irritant reaction, inner forearm: twice daily for ten days; for Irritant reaction, inner forearm: second test, one subject of four reacted; for Irritant reaction, inner forearm / Irritation of the cheeks: 0.075% solution; for Irritation of the cheeks: third test, twice daily, six days
Procedure: 2-(9-cis-retinoyloxy)-4-methoxyacetophenone is evaluated in a study of its potential to produce dermal irritation. Comparisons are made of tretinoin, isotretinoin, 2-(9-cis-retinoyloxy)-4-methoxyacetophenone, and the vehicle solution.
In the first test, four solutions are used. The control consists of vehicle solution, namely a solution of 60% by volume ethanol and 40% by volume polyethylene glycol. The other three solutions are 0.025% solutions of tretinoin, isotretinoin, or 2-(9-cis-retinoyloxy)-4-methoxyacetophenone in 60% by volume ethanol and 40% by volume polyethylene glycol. Four patients paint two saturated cotton swabs of each of the four solutions on four different areas of the inner forearm, twice daily for ten days.
In the second test, four other solutions are used. The control consists of vehicle solution, namely a solution of 90% by volume ethanol and 10% by volume polyethylene glycol. The other three solutions are 0.075% solutions of tretinoin, isotretinoin, or 2-(9-cis-retinoyloxy)-4-methoxyacetophenonein 90% by volume ethanol and 10% by volume polyethylene glycol. Four patients paint two saturated cotton swabs of each of the four solutions on four different areas of the inner forearm, twice daily for ten days. Only one subject experiences an irritant reaction. […] By day nine, both areas are still reacting, the tretinoin area more intensely than the isotretinoin area. There is no reaction in either the 2-(9-cis-retinoyloxy)-4-methoxyacetophenone or the control areas.
In the third test, three solutions are used. The three solutions are 0.075% solutions of tretinoin, isotretinoin, or 2-(9-cis-retinoyloxy)-4-methoxyacetophenone in 90% by volume ethanol and 10% by volume polyethylene glycol. Four patients paint two saturated cotton swabs of the 2-(9-cis-retinoyloxy)-4-methoxyacetophenone solution twice daily on one cheek of their faces. To the other cheek they apply two saturated cotton swabs of either tretinoin or isotretinoin.
The tests are carried out in double-blind fashion, that is, neither the subjects nor the investigator know the contents of the solutions during the study.
Clinical assessments are made daily of the subjects cheeks. All subjects develop irritant reactions by the third or fourth day of the study.

[4] = test system: rabbit skin; assay: Draize test for irritation (rabbit dermal irritation); assay type: in vivo
[5] = test system: Human neonatal foreskin fibroblasts; assay: Growth of human neonatal foreskin fibroblasts (cell number); assay type: cell-based; conditions: two days
Source text: (§1) Human neonatal foreskin keratinocytes and human neonatal foreskin fibroblasts were isolated and grown in monlayer culture. Culture medium for keratinocytes was Keratincyte Growth Medium (KGM) from Clonetics, Inc., San Diego. Calif. The culture medium for fibroblasts was Dulbecco's Modified Eagle's Medium (DMEM) supplemented with non-essential amino acids and 10% fetal bovine serum. The culture medium was obtained from GIBCO, Grand Island, N.Y. and the FBS was from Hyclone Labs, Inc., Logan, Utah.
Cells at passage 2-4 were plated in wells of a 24 well dish at approximately 5×10^4 cells per well in their respective culture medium. Incubation was at 37° C. with 5% CO2. After the cells attached and spread overnight, they were washed two times in serum-free keratincyte basal medium (KBM) and incubated in 1 ml of KBM or in 1 ml of KGM. Compound IV was added in varying concentrations to the wells. All-trans-retinoic acid (or no treatment) was added to control wells. The cells were incubated for an additional two days for fibroblasts and three days for keratinocytes, and were then harvested and counted. The effect of IV and of the controls are shown for both cell types in Tables 9 and 10: […]

[6] = test system: Human neonatal foreskin keratinocytes; assay: Growth of human neonatal foreskin keratinocytes (cell number); assay type: cell-based; conditions: three days
Source text: as §1
Cells at passage 2-4 were plated in wells of a 24 well dish at approximately 5×10^4 cells per well in their respective culture medium. Incubation was at 37° C. with 5% CO2. After the cells attached and spread overnight, they were washed two times in serum-free keratincyte basal medium (KBM) and incubated in 1 ml of KBM or in 1 ml of KGM. Compound IV was added in varying concentrations to the wells. […] The cells were incubated for an additional two days for fibroblasts and three days for keratinocytes, and were then harvested and counted.

[7] = test system: partial-thickness skin wounds; conditions: cited from earlier work
[8] = test system: corneal epithelial wounds; conditions: cited from earlier work
[9] = test system: ultraviolet damaged skin of hairless mice; conditions: topical tretinoin, several weeks; cited from earlier work
[10] = test system: keratinocytes; conditions: in vitro; cited from earlier work
[11] = test system: epidermal growth factor cell surface receptors; conditions: in vitro; cited from earlier work

SMILES: COc1ccc(C(=O)COC(=O)/C=C(C)/C=C/C=C(C)\C=C\C2=C(C)CCCC2(C)C)cc1 [Compound 2, 2-(9-cis-retinoyloxy)-4'-methoxyacetophenone]
- Sebaceous gland reduction [1]: +++
- Signs of erythema or edema formation (Draize scale) ([2]; 0.5 ml topical, intact and abraded skin, 24 and 72 hours): no signs of erythema or edema formation are evident in any of the 12 test animals
- Body weight change ([2]; beginning vs end of observation period, all 12 animals): All 12 animals exhibited a gain in body weight
- Overt signs of toxicity ([2]; rabbit, in vivo): No overt signs of toxicity are evident
- Irritant reactions, inner forearm [3]: No irritant reactions occur
- Irritant reaction, inner forearm [3]: no reaction
- Irritation of the cheeks [3]: slightly irritated or not irritated at all

SMILES: CC1=C(/C=C/C(C)=C/C=C/C(C)=C/C(=O)O)C(C)(C)CCC1 [all-trans-retinoic acid, reference compound]
- Sebaceous gland reduction [1]: +++
- Irritant reactions, inner forearm [3]: No irritant reactions occur
- Irritant reaction, inner forearm [3]: On day two, the tretinoin area begins reacting with redness and peeling
- Irritation of the cheeks [3]: reactions which are so intense with redness and peeling that all subjects discontinue application on or before the sixth day
- Erythema Grade ([4]; dose 0.001%): 0.4
- Erythema Grade ([4]; dose 0.01%): 0.8
- Erythema Grade ([4]; dose 0.1%): 2.8
- ID50, dermal irritation ([4]; rabbit): 0.01%
- Number of fibroblasts ([5]; 0.25 μg/ml): 10.1 ± 0.2 × 10^4 cells
- Number of fibroblasts ([5]; 0.5 μg/ml): 10.1 ± 0.1 × 10^4 cells
- Number of fibroblasts ([5]; 1.0 μg/ml): 9.6 ± 0.1 × 10^4 cells
- Number of keratinocytes, KGM ([6]; 0.25 μg/ml): 24.7 ± 1.7 × 10^4 cells
- Number of keratinocytes, KMB ([6]; 0.25 μg/ml): 13.7 ± 1.6 × 10^4 cells
- Number of keratinocytes, KGM ([6]; 0.5 μg/ml): 17.7 ± 0.8 × 10^4 cells
- Number of keratinocytes, KMB ([6]; 0.5 μg/ml): 15.2 ± 0.1 × 10^4 cells
- Number of keratinocytes, KMB ([6]; 1.0 μg/ml): 12.3 ± 1.0 × 10^4 cells
- Effect on healing when applied after wounding ([7]; applied after wounding): deleterious effect on healing
- Rate of healing ([7]; pre-treated with 0.05% tretinoin cream for 10 days prior to wounding): 6%
- Increase in the healing rate ([8]; 0.1% tretinoin three times per day): 21%
- Increase in the healing rate ([8]; five times a day): 35%
- Repair of ultraviolet damaged skin [9]: subepidermal repair zone in the treated mice was significantly wider than that in the untreated control group; also recorded: augmented the repair of ultraviolet damaged tissue in the hairless mouse with new blood vessel formation
- Effect on keratinocyte proliferation and growth [10]: capacity to stimulate proliferation of quiescent keratinocytes in vitro
- Effect on epidermal growth factor activity and receptor binding [11]: increases the mitogenic activity of epidermal growth factor and its binding to its cell surface receptors in vitro
